Data as given in PubChem BioAssay (NCI).
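These data come from cells grown in 96-well plates and exposed to compound for 48 hours at five concentrations. At the TGI there is no net growth.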

What was measured:
Experiment in all cases: NCI tumour cell line growth inhibition, 48 h
A498 renal = tested on: A498 renal
A549 NSCLC = tested on: A549 NSCLC
CCRF-CEM leukemia = tested on: CCRF-CEM leukemia
COLO 205 colon = tested on: COLO 205 colon
HL-60(TB) leukemia = tested on: HL-60(TB) leukemia
KM12 colon = tested on: KM12 colon
NCI/ADR-RES ovarian = tested on: NCI/ADR-RES ovarian
SW-620 colon = tested on: SW-620 colon
UACC-257 melanoma = tested on: UACC-257 melanoma

COC(=O)C1CCC(=O)N1CN(C(C)=O)c1ccccc1 (stereo unspecified)
TGI (A498 renal): > 100 µM
TGI (A549 NSCLC): > 100 µM
TGI (CCRF-CEM leukemia): > 100 µM
TGI (COLO 205 colon): > 100 µM
TGI (HL-60(TB) leukemia): > 100 µM
TGI (KM12 colon): > 100 µM
TGI (NCI/ADR-RES ovarian): > 100 µM
TGI (SW-620 colon): > 100 µM
TGI (UACC-257 melanoma): > 100 µM

O=[N+]([O-])/C=C1\COCc2cc3c(cc21)OCO3
TGI (A498 renal): 42 µM
TGI (A549 NSCLC): 39.8 µM
TGI (CCRF-CEM leukemia): 39.1 µM
TGI (COLO 205 colon): 42 µM
TGI (HL-60(TB) leukemia): 57.4 µM
TGI (KM12 colon): 28.4 µM
TGI (NCI/ADR-RES ovarian): 43.4 µM
TGI (SW-620 colon): 47.4 µM
TGI (UACC-257 melanoma): 40.9 µM

O=C(c1ccccc1)c1ccc(COc2ccc(C(c3c(O)c4ccccc4oc3=O)c3c(O)c4ccccc4oc3=O)cc2)cc1
TGI (A549 NSCLC): 65.2 µM
TGI (CCRF-CEM leukemia): 16.4 µM
TGI (COLO 205 colon): 39.2 µM
TGI (KM12 colon): 29.6 µM
TGI (NCI/ADR-RES ovarian): 40.9 µM
TGI (SW-620 colon): 80.4 µM
TGI (UACC-257 melanoma): 38.7 µM

CCC(NC(C)c1ccccc1)C(O)c1ccc(OCc2ccccc2)c(OCc2ccccc2)c1 (stereo unspecified)
TGI (A498 renal): 39.1 µM
TGI (A549 NSCLC): 29.8 µM
TGI (CCRF-CEM leukemia): 38.7 µM
TGI (COLO 205 colon): 3.88 µM
TGI (HL-60(TB) leukemia): 30.2 µM
TGI (KM12 colon): 18 µM
TGI (NCI/ADR-RES ovarian): 30.6 µM
TGI (SW-620 colon): 20.3 µM
TGI (UACC-257 melanoma): 13.8 µM

CC1(C)CS(=O)(=O)CC(C)(C)C(=N/N)/C1=N\N
TGI (A498 renal): > 100 µM
TGI (A549 NSCLC): > 100 µM
TGI (COLO 205 colon): > 100 µM
TGI (HL-60(TB) leukemia): > 100 µM
TGI (KM12 colon): > 100 µM
TGI (NCI/ADR-RES ovarian): > 100 µM
TGI (SW-620 colon): > 100 µM
TGI (UACC-257 melanoma): > 100 µM

COc1cc(OC)c(OC)cc1/C=N/N=C(\N)NO
TGI (A498 renal): > 100 µM
TGI (A549 NSCLC): > 100 µM
TGI (CCRF-CEM leukemia): > 100 µM
TGI (COLO 205 colon): > 100 µM
TGI (HL-60(TB) leukemia): > 100 µM
TGI (KM12 colon): > 100 µM
TGI (NCI/ADR-RES ovarian): > 100 µM
TGI (SW-620 colon): > 100 µM
TGI (UACC-257 melanoma): > 100 µM

CN(C)CCNC(=O)c1cccc2c(NCC(=O)O)c3ccccc3nc12
TGI (A498 renal): 57.9 µM
TGI (A549 NSCLC): 53.5 µM
TGI (CCRF-CEM leukemia): > 100 µM
TGI (COLO 205 colon): > 100 µM
TGI (HL-60(TB) leukemia): > 100 µM
TGI (KM12 colon): 60.7 µM
TGI (NCI/ADR-RES ovarian): 48.2 µM
TGI (SW-620 colon): > 100 µM

COc1cc2c(c(OC)c1OC)C(=O)[C@H](O)[C@H]2NC(N)=O
TGI (A549 NSCLC): > 100 µM
TGI (CCRF-CEM leukemia): > 100 µM
TGI (COLO 205 colon): > 100 µM
TGI (HL-60(TB) leukemia): > 100 µM
TGI (KM12 colon): > 100 µM
TGI (NCI/ADR-RES ovarian): > 100 µM
TGI (SW-620 colon): > 100 µM
TGI (UACC-257 melanoma): > 100 µM

COc1cc(OC)c(/C=C2\N=C(C)N(Nc3nnc(NN4C(=O)/C(=C/c5c(OC)cc(OC)cc5OC)N=C4C)c4ccccc34)C2=O)c(OC)c1
TGI (A498 renal): > 100 µM
TGI (A549 NSCLC): > 100 µM
TGI (CCRF-CEM leukemia): > 100 µM
TGI (COLO 205 colon): > 100 µM
TGI (HL-60(TB) leukemia): > 100 µM
TGI (KM12 colon): > 100 µM
TGI (SW-620 colon): > 100 µM
TGI (UACC-257 melanoma): > 100 µM

CN(CCO)c1nc2c(c(=O)[nH]1)CCC2
TGI (A549 NSCLC): > 100 µM
TGI (CCRF-CEM leukemia): > 100 µM
TGI (COLO 205 colon): > 100 µM
TGI (HL-60(TB) leukemia): > 100 µM
TGI (KM12 colon): > 100 µM
TGI (SW-620 colon): > 100 µM
TGI (UACC-257 melanoma): > 100 µM

COc1cc2cc(C(=O)N3CC(CCl)c4ccc(O)cc43)[nH]c2c(OC)c1OC (stereo unspecified)
TGI (A549 NSCLC): 1.25 µM
TGI (CCRF-CEM leukemia): > 100 µM
TGI (COLO 205 colon): 0.0451 µM
TGI (KM12 colon): 0.0273 µM
TGI (SW-620 colon): 0.137 µM

C=Cc1c(C)c(OC)cc2c1Oc1ccc(OC)c(C)c1CC2
TGI (A498 renal): > 100 µM
TGI (A549 NSCLC): > 100 µM
TGI (CCRF-CEM leukemia): > 100 µM
TGI (COLO 205 colon): > 100 µM
TGI (HL-60(TB) leukemia): > 100 µM
TGI (KM12 colon): > 100 µM
TGI (NCI/ADR-RES ovarian): > 100 µM
TGI (SW-620 colon): > 100 µM
TGI (UACC-257 melanoma): > 100 µM

COC(=O)[C@@H]1CN(C(=O)CCc2ccccc2)C(=O)N1C(=O)OCc1ccccc1
TGI (A498 renal): > 100 µM
TGI (A549 NSCLC): > 100 µM
TGI (CCRF-CEM leukemia): > 100 µM
TGI (COLO 205 colon): > 100 µM
TGI (HL-60(TB) leukemia): > 100 µM
TGI (KM12 colon): > 100 µM
TGI (NCI/ADR-RES ovarian): > 100 µM
TGI (SW-620 colon): > 100 µM
TGI (UACC-257 melanoma): > 100 µM

N#Cc1c(N)oc(-c2cccc([N+](=O)[O-])c2)c1C#N
TGI (A498 renal): 61.7 µM
TGI (A549 NSCLC): > 100 µM
TGI (CCRF-CEM leukemia): > 100 µM
TGI (COLO 205 colon): 44.7 µM
TGI (HL-60(TB) leukemia): 65.1 µM
TGI (NCI/ADR-RES ovarian): > 100 µM
TGI (SW-620 colon): 62 µM
TGI (UACC-257 melanoma): 48.9 µM

N#CC(C#N)=Cc1ccc2c(c1)OC(Cl)O2 (stereo unspecified)
TGI (A549 NSCLC): > 100 µM
TGI (CCRF-CEM leukemia): > 100 µM
TGI (COLO 205 colon): 52 µM
TGI (HL-60(TB) leukemia): 44.1 µM
TGI (KM12 colon): 39.9 µM
TGI (NCI/ADR-RES ovarian): > 100 µM
TGI (UACC-257 melanoma): 41 µM

CC12NN=NC1C(=O)NC2=O (stereo unspecified)
TGI (A498 renal): > 100 µM
TGI (A549 NSCLC): > 100 µM
TGI (CCRF-CEM leukemia): > 100 µM
TGI (COLO 205 colon): > 100 µM
TGI (HL-60(TB) leukemia): > 100 µM
TGI (KM12 colon): > 100 µM
TGI (SW-620 colon): > 100 µM
TGI (UACC-257 melanoma): > 100 µM

O=c1oc2ccccc2c2c(=O)c3ccc(OC/C(=N/O)c4ccc(Cl)cc4)cc3oc12
TGI (A498 renal): 15.6 µM
TGI (A549 NSCLC): 32 µM
TGI (CCRF-CEM leukemia): 60.8 µM
TGI (COLO 205 colon): 29.1 µM
TGI (HL-60(TB) leukemia): 28.4 µM
TGI (KM12 colon): 14 µM
TGI (NCI/ADR-RES ovarian): 31.4 µM
TGI (SW-620 colon): 37 µM
TGI (UACC-257 melanoma): > 100 µM

CN(C)CCCNC(=O)N/N=C/c1cccc([N+](=O)[O-])c1
TGI (A549 NSCLC): > 100 µM
TGI (CCRF-CEM leukemia): > 100 µM
TGI (KM12 colon): > 100 µM
TGI (SW-620 colon): > 100 µM
TGI (UACC-257 melanoma): > 100 µM

CCO[C@]12C[C@H](OC)[C@@]3(O)CC(C1[C@H]3OCc1ccccc1)C13C4C2[C@H](OC)C1[C@](COC)(CN4CC)[C@H](O)C[C@@H]3OC (stereo partly specified)
TGI (A549 NSCLC): > 100 µM
TGI (CCRF-CEM leukemia): > 100 µM
TGI (COLO 205 colon): > 100 µM
TGI (HL-60(TB) leukemia): > 100 µM
TGI (SW-620 colon): > 100 µM
TGI (UACC-257 melanoma): > 100 µM

CNC(=O)N1CN(c2ccccc2)C2(CCN(CCCC(=O)c3ccc(F)cc3)CC2)C1=O
TGI (A549 NSCLC): > 100 µM
TGI (CCRF-CEM leukemia): 70.8 µM
TGI (COLO 205 colon): 22.3 µM
TGI (HL-60(TB) leukemia): 37.8 µM
TGI (KM12 colon): 45.9 µM
TGI (NCI/ADR-RES ovarian): 36.6 µM
TGI (SW-620 colon): > 100 µM
TGI (UACC-257 melanoma): 24.2 µM
